Values after ≈ are worked out from the molar mass of the structure shown. “Also recorded” adds a separate entry of the source.
How the values were obtained:
E. coli CFT073 [1] = experiment: Frequency of resistance (FOR); type: cell-based; settings: 4× MIC, MHII agarose
Experimental: (§1) Frequencies of resistance (FORs) of G0790 were determined for E. coli CFT073, E. cloacae (ATCC 13047), and K. pneumoniae (ATCC 700603) as previously published ([70]). To determine the FOR, 3 to 4 colonies of the strain to be tested were picked from a fresh plate and diluted to an optical density at 600 nm (OD600) of 0.00001 in 1 ml of cation-adjusted MHBII. Ten independent 5-ml cultures in MHBII were prepared by inoculating 5 μl (approximately 1 × 10^3 CFU) and incubated at 37°C for 18 h. The bacteria were pelleted by centrifugation at 4000 × g at 4°C for 15 min and resuspended in 0.5 ml fresh MHBII. Two hundred fifty microliters of the bacterial suspension was plated evenly on MHII agarose plates containing globomycin or G0790 at a final concentration of 4× and 8× MIC. In parallel, CFU from each independent culture was measured by spotting 10-fold serial dilutions on MHII agar plates and incubated at 37°C for 18 h. Colonies were counted at days 1, 2, and 3 postinoculation. FOR was calculated as the ratio of the total number of resistant colonies relative to the total CFU plated. For strains that had no resistant colonies growing on plates, the p0 method was used to calculate the FOR (FOR = m/total CFU plated, where m = −ln p0 and p0 is the proportion of cultures with no mutants; 0.7 ≥ p0 ≥ 0.1), as described previously ([71]). Colonies were picked and resuspended in 30 μl MHBII broth medium, and 10 μl was plated on an MHII agar plate containing G0790 to be used to determine the MIC. Of the remaining 20 μl, half was used to inoculate 1.5 ml MHBII broth medium containing G0790 and grown at 37°C for 18 h to generate cell lysates for Western blot analysis, isolate genomic DNA (gDNA) for whole-genome sequencing, and for frozen glycerol stocks.

E. coli CFT073 Δlpp = experiment: Frequency of resistance (FOR); type: cell-based; settings: for FOR (frequency of resistance): MHII agarose
Experimental: as §1

E. cloacae 13047 = experiment: Frequency of resistance (FOR); type: cell-based; settings: 4× MIC, MHII agarose
Experimental: as §1

K. pneumoniae 700603 = experiment: Frequency of resistance (FOR); type: cell-based; settings: 4× MIC
Experimental: as §1

E. coli CFT073 [2] = experiment: Bactericidal activity, CFU over time; type: cell-based; settings: G0790 at 2× MIC, two independent experiments in duplicates
[3] = system: G0790-resistant E. coli CFT073; experiment: Population analysis profile (heteroresistance); type: cell-based; settings: MHII agarose, 18 h, 37°C
Experimental: The population analysis profiles of G0790 heteroresistant subpopulations were determined according to a method described previously ([79]). Briefly, three independent cultures for each G0790-resistant mutant strain were grown overnight at 37°C in MHBII containing G0790 at sub-MICs to maintain selective pressure. Five microliters or 10-fold serial dilution (10^−1 to 10^−7) in duplicates for each culture were transferred to MHII agarose plates or MHII agarose plates containing a range of G0790 concentrations (100, 75, 50, 37.5, 25, 12.5, 6.25, 3.125, 1.56, 0.8, and 0.4 μM). CFU were enumerated after incubation at 37°C for 18 h. Heteroresistance was defined using the criteria published by El-Halfawy and colleagues, which states there should be a >8-fold difference between the highest noninhibitory concentration and the highest inhibitory concentration ([2], [80]).

[4] = system: G0790-resistant E. coli CFT073; experiment: MIC against G0790-resistant CFT073 strains; type: cell-based
Experimental: (§2) MICs of compounds in each strain were determined in cation-adjusted Mueller-Hinton II (MHII) broth or MHII agar according to the Clinical and Laboratory Standards Institute protocol (CLSI 2006). To measure the effect of protein binding on activity, MIC assays were performed in the presence of 50% heat-inactivated human serum. The serum killing assay was performed as described previously ([43]). FOR assays and growth on plates containing G0790 were always performed on MHII agarose plates.
as §1

G0790-resistant CFT073 = experiment: MIC after in vitro passaging of G0790-resistant strains; type: cell-based, E. coli; settings: in words
Experimental: This bacterial culture is referred to as passage 1 (P1). […] For each passage, MICs were measured and cell lysates and genomic DNA were prepared for Western blot and whole-genome sequencing analyses, respectively.

[5] = system: G0790-resistant CFT073 Δlpp; experiment: MIC against G0790-resistant CFT073 Δlpp strains; type: cell-based, E. coli; settings: non-lspA_GA
Experimental: as §2
Frequencies of resistance (FORs) of G0790 were determined for E. coli CFT073, E. cloacae (ATCC 13047), and K. pneumoniae (ATCC 700603) as previously published ([70]). To determine the FOR, 3 to 4 colonies of the strain to be tested were picked from a fresh plate and diluted to an optical density at 600 nm (OD600) of 0.00001 in 1 ml of cation-adjusted MHBII. Ten independent 5-ml cultures in MHBII were prepared by inoculating 5 μl (approximately 1 × 10^3 CFU) and incubated at 37°C for 18 h. […] In parallel, CFU from each independent culture was measured by spotting 10-fold serial dilutions on MHII agar plates and incubated at 37°C for 18 h. Colonies were counted at days 1, 2, and 3 postinoculation. FOR was calculated as the ratio of the total number of resistant colonies relative to the total CFU plated. […]

E. coli CFT073 [6] = experiment: Electron microscopy / live-cell imaging of morphology; type: cell-based; settings: CFT073, 2× MIC, 1 h (EM)
Experimental: Electron microscopy was performed as previously described ([61]). […] Cells were immediately placed between a coverslip and a 1% MHII agarose pad containing 12.4 μM G0790 and 10 μg/ml gentamicin for imaging. Cells were maintained at 37°C during imaging with a stage-top chamber (Okolab Inc.). Cells were imaged on a Nikon Eclipse Ti inverted confocal microscope (Nikon Instruments Inc.) coupled with an UltraVIEW VoX (PerkinElmer Inc.) and a 100× (numerical aperture [NA] 1.40) oil-immersion lens objective. Images were captured at various times using an ORCA-Flash 4.0 CMOS camera (Hamamatsu Photonics), collected using Volocity software (Quorum Technologies), and processed using Fiji ([66]).

For `CCCCCC[C@H]1OC(=O)CNC(=O)[C@H]([C@H](C)O)NC(=O)[C@H](CN)NC(=O)[C@H](C2CCCCC2)NC(=O)[C@H](CCC)N(C)C(=O)[C@@H]1C` [G0790], the “FOR (frequency of resistance)” value (E. coli CFT073 [1]) was 2.9 × 10^−9, the “Decrease in FOR in CFT073 Δlpp compared to WT CFT073” value (E. coli CFT073 Δlpp; 4× MIC) was roughly 85 fold and the “FOR (frequency of resistance)” value (E. coli CFT073 Δlpp; 4× MIC) was 3.4 × 10^−11. The “FOR (frequency of resistance)” value (E. coli CFT073 Δlpp; 8× MIC, no colonies, p0 method) was <1.7 × 10^−11, the “FOR (frequency of resistance)” value (E. cloacae 13047) was 2.7 × 10^−9 and the “FOR increase in K. pneumoniae 700603 relative to E. coli” value (K. pneumoniae 700603) was roughly 17 fold. The “FOR (frequency of resistance)” value (K. pneumoniae 700603; MHII agarose) was 4.8 × 10^−8, the Bactericidal activity (E. coli CFT073 [2]) was “bactericidal” and the “Fold difference between highest inhibitory and highest noninhibitory concentration” value ([3]; CFT073 4×-R3) was 128 fold. For the same compound, the “Fold difference between highest inhibitory and highest noninhibitory concentration” value ([3]; CFT073 4×-R10) was 96 fold, the “Fold difference between highest inhibitory and highest noninhibitory concentration” value ([3]; CFT073 8×-R5) was 12 fold and the MIC ([4]; CFT073 4×-R1, ISEc10-istB insertion (3′ of lpp)) was 19.5 µg/mL (≈ 29.2 µM). It also gave an MIC ([4]; CFT073 4×-R2, Lpp p.Asp54fs, Non-lspA_GA) of 19.5 µg/mL (≈ 29.2 µM), an MIC ([4]; CFT073 4×-R3, lspA_GA) of 19.5 µg/mL (≈ 29.2 µM) and an MIC ([4]; CFT073 4×-R4, lpp deletion, Non-lspA_GA) of 19.5 µg/mL (≈ 29.2 µM). The MIC ([4]; CFT073 4×-R6, ISEc10-istB insertion (3′ of lpp)) was 39 µg/mL (≈ 58.5 µM), the MIC ([4]; CFT073 4×-R7, ISEc10-istB insertion (3′ of lpp), Non-lspA_GA) was 39 µg/mL (≈ 58.5 µM) and the MIC ([4]; CFT073 4×-R9, lpp deletion) was 19.5 µg/mL (≈ 29.2 µM). It also gave an MIC ([4]; CFT073 4×-R10, lspA_GA) of 19.5 µg/mL (≈ 29.2 µM), an MIC ([4]; CFT073 8×-R1, lspA_GA) of 19.5 µg/mL (≈ 29.2 µM) and an MIC ([4]; CFT073 8×-R3, 5′ lpp deletion, Non-lspA_GA) of 39 µg/mL (≈ 58.5 µM). The MIC ([4]; CFT073 8×-R4, lpp deletion) was 39 µg/mL (≈ 58.5 µM), the MIC ([4]; CFT073 8×-R5, ISEc10-istB insertion (5′ of lpp), lspA_GA) was 39 µg/mL (≈ 58.5 µM) and the MIC ([4]; CFT073 8×-R6, lpp deletion, Non-lspA_GA) was 19.5 µg/mL (≈ 29.2 µM). The “MIC after passaging in the absence of G0790, lspA_GA mutants” value (G0790-resistant CFT073; 4×-R3, 4×-R10, 8×-R1, 8×-R5, 3 days) was “comparable to the MIC of the parental WT strain”, the “Phenotype after passaging in the absence of G0790, 8×-R5” value (G0790-resistant CFT073; 8×-R5 (GA and ISEc10-istB insertion upstream of lpp)) was “reverted to the WT phenotype” and the “Resistance after passaging in the absence of G0790, lpp insertion (downstream) or lpp deletion strains” value (G0790-resistant CFT073; 3 days) was “maintained resistance to G0790”. For the same compound, the MIC ([5]; CFT073 Δlpp 4×-R1, lspA_GA) was 78 µg/mL (≈ 117 µM), the MIC ([5]; CFT073 Δlpp 4×-R2, lspA_GA) was 78 µg/mL (≈ 117 µM) and the “Cell morphology / membrane accumulation” value (E. coli CFT073 [6]) was “globular cell morphology and accumulation of bacterial membranes; also recorded: changes in cellular morphology and membrane accumulation”.

From publication PMC7482066, “Unstable Mechanisms of Resistance to Inhibitors of Escherichia coli Lipoprotein Signal Peptidase” (mBio, 2020)
